From PubChem BioAssay (NCI) come the findings set out here.

Several values for one entry are separate records, joined by “and”; a condition that tells them apart may be missing. Equal values may be shown once.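 Step 1: Grow cells in 96-well plates. Step 2: Expose to compound for 48 hours at 5 concentrations. Step 3: Interpolate endpoints linearly; if unreached, use highest concentration. At the GI50, growth is halved. The concentration for full growth arrest is given as TGI.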

For the experiment, the system named is MDA-MB-468 breast. The experiment in a line: NCI anticancer screen, dose series, 48 h.
For `CCN(CC)CCn1c2ccc(O)cc2c2sc3cc(OC)ccc3c(=O)c21`, the GI50 is 1540 nM and the TGI turned out to be 3000 nM.
The like results for `CC[C@]12C=CCN3CC[C@@]4(c5ccc(OC)cc5N(C)[C@H]4[C@@](O)(C(=O)OC)[C@@H]1OC(=O)CCCN1CCN(CCCC(=O)O[C@@H]4[C@]5(CC)C=CCN6CC[C@@]7(c8ccc(OC)cc8N(C)[C@H]7[C@@]4(O)C(=O)OC)[C@@H]65)CC1)[C@@H]32` were, in that order, 252 nM and 730 nM.
With `C/C(=C\c1csc(C)n1)[C@@H]1C[C@@H]2O[C@]2(C)CCC[C@H](C)[C@H](O)[C@@H](C)C(=O)C(C)(C)[C@@H](O)CC(=O)N1`, the GI50 is 0.233 nM and the TGI was found to be 0.58 nM.
On the same counts, the results for `COc1ccc(-c2c(Nc3ccccn3)nc3c(C4=CCCCC4)c(-c4ccccc4)[nH]n3c2=O)cc1` are 1910 nM and 8650 nM.
As to `OCc1ccc(N2CCc3ccc(F)cc3C2)cc1Cl`, the GI50 was less than 12.9 nM and the TGI stood at 35.1 nM.
Regarding `O=C(CCN1CCOCC1)Nc1ccc(Cn2nnc3c2C(=O)c2nnn(Cc4ccc(NC(=O)CCN5CCOCC5)cc4)c2C3=O)cc1`, the GI50 was 257 nM and the TGI came out at 627 nM.
Consider `CC(C)c1ccc2c(c1)CCC1C2CCCC1(C)NCc1ccccc1` (configuration not stated), for which the GI50 was 1900 nM and the TGI was found to be 4160 nM.
On to `COc1cc(/C=C/C(=O)c2nc3cc(F)ccc3nc2C)cc(OC)c1OC`, for which the GI50 was 2750 nM and the TGI was greater than 100000 nM.
For the compound `Cc1cccc(Oc2ccc(Nc3ncnc4ccc(NC(=O)CN(C)C)cc34)cc2Cl)c1`, the GI50 was 180 nM and the TGI worked out at 1380 nM.
The like results for `CCN1CCN(CC(=O)Nc2nc3ccc(NCc4ccc(Br)cc4)cc3s2)CC1` were, in that order, 1740 nM and 4510 nM.
On the same counts, the results for `COc1ccc(-n2c(=O)c3ccccc3n(Cc3ccc(C(=O)NO)cc3)c2=O)cc1` are 1440 nM and 3490 nM.
Regarding `N#C[Se]CCN1C(=O)c2ccccc2C1=O`, the GI50 is 2010 nM and the TGI was 6990 nM.
The like results for `CC1=C(C(=O)Nc2ccc3[nH]ncc3c2)C(c2ccc(F)cc2)N=C(c2ccc(C(F)(F)F)nc2)N1` (configuration not stated) were, in that order, 5650 nM and 15500 nM.
On the same counts, the results for `Oc1ccc(CSc2nnc(-c3ccc(Oc4ccccc4)cc3)o2)c2cccnc12` are 1760 nM and greater than 100000 nM.
For `CCN1CCN(c2ccc(NC(=O)Nc3ccc4c(ccn4-c4ccnc(C(=O)NC)c4)c3)cc2C(F)(F)F)CC1`, the GI50 is greater than 14300 nM and the TGI is greater than 14300 nM.
Consider `O=C(NO)c1ccc(CNc2cccc3nc(C4CC4)n(-c4ccccc4)c(=O)c23)cc1`, for which the GI50 is 1880 nM and the TGI was determined as 5160 nM.
Regarding `CN(C)c1ccc(/C=N/N=C(\C#N)[S][Sn]([Cl])([c]2ccccc2)[c]2ccccc2)cc1`, the GI50 was 480 nM and the TGI is 2000 nM.
For `Oc1ccc(CSc2nnc(-c3ccccc3)n2-c2ccccc2)c2cccnc12`, the GI50 is 497 nM and the TGI worked out at 6820 nM.
For `Nc1cc(C(F)(F)F)c(-c2nc(N3CCOCC3)nc(N3CCOCC3)n2)cn1`, the GI50 is 180 nM and the TGI was 897 nM.
The like results for `O=C1C[C@@H]2OCC=C3C[N+]4([O-])CC[C@]56c7ccccc7N1[C@H]5[C@H]2[C@H]3C[C@@H]64` (some centres not stated) were, in that order, greater than 100000 nM and greater than 100000 nM.
On the same counts, the results for `CN1CCN(c2ccc(NC(=O)Nc3ccc4c(ccn4-c4cccc(C(N)=O)n4)c3)cc2C(F)(F)F)CC1` are 4300 nM and 12100 nM.
With `COc1ccc(Cn2c(Br)c3c(c2-c2cc(OC)c(OC)c(OC)c2)CCc2sc(N)nc2-3)cc1`, the GI50 is 3130 nM and the TGI was 41900 nM.
On to `O=[N+]([O-])c1ccc(N/N=C\c2cc(Br)ccc2O)nc1`, for which the GI50 is 1710 nM and the TGI is 4320 nM.
For the compound `CN1CCN(C(=O)/C=C/c2ccc([N+](=O)[O-])o2)CC1`, the GI50 is 12100 nM and the TGI was 28500 nM.
As for `COc1ccc([C@@H]2[C@@H](Oc3ccccc3)C(=O)N2c2cc(OC)c(OC)c(OC)c2)cc1F`, the GI50 is 111 nM and the TGI is greater than 100000 nM.
For the compound `O=C1[C@H](Cc2ccc(O)cc2)N2C(=O)CCN(C(=O)NCc3ccccc3)[C@H]2CN1Cc1cccc2ccccc12`, the GI50 is 5660 nM and the TGI was 23200 nM.
In the case of `CNS(=O)(=O)Nc1nccc(Cc2c(C)c3ccc(Oc4ncccn4)cc3oc2=O)c1F`, the GI50 was 3460 nM and > 5440 nM; the TGI was 82600 nM and > 10000 nM.
On to `O=S(=O)(Nc1ccccc1)c1ccc(C2CC3(Cl)C(Cl)=C(Cl)C2(Cl)C3(Cl)Cl)cc1` (configuration not stated), for which the GI50 is 2640 nM and the TGI came out at 7860 nM.
Regarding `O=C(O)CSc1cc(NS(=O)(=O)c2ccc(Br)cc2)c2ccccc2c1O`, the GI50 is 1870 nM and the TGI was found to be 4340 nM.
Take `COc1cc(NC(=O)COc2ccccc2)c(C(N)=O)cc1OC`: the GI50 was 848 nM and the TGI was found to be 72100 nM.
Take `Cc1ccc(-c2nc([P+](c3ccccc3)(c3ccccc3)c3ccccc3)c(N3CCOCC3)o2)cc1`: the GI50 was 248 nM and the TGI was 870 nM.
The like results for `CN(C)[C@@H]1C(=O)C(C(=O)NCc2nc3[nH]cnc(=S)c3[nH]2)=C(O)[C@@]2(O)C(=O)C3=C(O)c4c(O)cccc4[C@@](C)(O)[C@H]3C[C@@H]12` were, in that order, 955 nM and greater than 100000 nM.
With `O=C1NC(=NCc2cccs2)O/C1=C\c1ccc2ncccc2c1`, the GI50 was 3410 nM and the TGI came to 13900 nM.
On the same counts, the results for `COc1cc(/C=C/c2cc(/C=C/c3ccc(O)c(OC)c3)n(C(=O)Nc3ccc(C)cc3)n2)ccc1O` are 301 nM and 1710 nM.
On to `CNCc1cccc2c1OCCOCCOCCNS(=O)(=O)c1ccc(cc1)-c1cnc(N)c(n1)C(=O)N2`, for which the GI50 is 1510 nM and the TGI is 3250 nM.
Consider `CN(C)CCCC1(c2ccc(F)cc2)OCc2cc(-c3csc4ccccc34)ccc21` (configuration not stated), for which the GI50 was 1540 nM and the TGI was determined as 3120 nM.
`O=c1c(Oc2ccc(F)cc2F)cc2cnc(NC3CCOCC3)nc2n1C1CC1`: the GI50 is greater than 25000 nM and the TGI was greater than 25000 nM.
Turning to `CCOC(=O)C#Cc1c(C(=O)OCC)nnn1[C@@H]1O[C@H](COC)[C@@H](OC)[C@H]1OC`, the GI50 is 2130 nM and the TGI was found to be 5430 nM.
With `FC(F)(F)c1cccc(CNC2CCN(CCc3ccccc3)CC2)c1`, the GI50 is 13500 nM and the TGI was 30200 nM.
Consider `COc1ccccc1CNCCCN1C(=O)c2ccc3c4c(ccc(c24)C1=O)C(=O)N(CCCNCc1ccccc1OC)C3=O`, for which the GI50 was 138 nM and the TGI came out at 288 nM.
The like results for `Oc1c(Br)cc(Cl)cc1C(c1cc(Cl)cc(Br)c1O)C(Cl)(Cl)Cl` were, in that order, 2200 nM and 7250 nM.
